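Dose response: 5 concentrations. Exposure: 48 h. Format: 96-well plates. Endpoint: linear interpolation; highest concentration if not reached. GI50 is the concentration that inhibits growth by half.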 Activity calls are given as the source filed them. Cut-off read from the data, not from the text of the source: active = GI50 up to about 1.1 µM and inactive = higher.
Columns and labels:
Assay in all cases: DTP human tumour cell line panel, 48 h
[1] = tested on: HOP-62
[2] = tested on: TK-10
[3] = tested on: HT-29
[4] = tested on: OVCAR-8
[5] = tested on: DMS-273
[6] = tested on: BT-549
[7] = tested on: SN12C
[8] = tested on: CAKI-1
[9] = tested on: A498
[10] = tested on: MDA-N
[11] = tested on: IGROV-1
[12] = tested on: K562
[13] = tested on: T47D
[14] = tested on: EKVX
[15] = tested on: OVCAR-5
[16] = tested on: SK-MEL-28
[17] = tested on: SR
[18] = tested on: SNB-78
[19] = tested on: HCC 2998
[20] = tested on: KM12
[21] = tested on: RPMI-8226
[22] = tested on: Hs-578T
[23] = tested on: MOLT-4
[24] = tested on: U-251
[25] = tested on: M19-MEL
[26] = tested on: SK-OV-3
[27] = tested on: MDA-MB-231
[28] = tested on: LOX IMVI
[29] = tested on: SW-620
[30] = tested on: RXF 393
[31] = tested on: SF-295
[32] = tested on: NCI/ADR-RES
[33] = tested on: HCT-15
[34] = tested on: MDA-MB-435
[35] = tested on: RXF 631
[36] = tested on: NCI-H460
[37] = tested on: ACHN
[38] = tested on: M14
[39] = tested on: SK-MEL-5
[40] = tested on: SNB-75
[41] = tested on: SK-MEL-2
[42] = tested on: UACC-257
[43] = tested on: SNB-19
[44] = tested on: HOP-92
[45] = tested on: Malme-3M
[46] = tested on: UACC-62
[47] = tested on: XF498
[48] = tested on: HCT-116
[49] = tested on: 786-0
[50] = tested on: OVCAR-3
[51] = tested on: COLO 205
[52] = tested on: KM-20L2
[53] = tested on: LXFL 529
[54] = tested on: PC-3
[55] = tested on: OVCAR-4
[56] = tested on: DU-145
[57] = tested on: MCF7
[58] = tested on: CCRF-CEM
[59] = tested on: NCI-H522
[60] = tested on: HOP-18
[61] = tested on: NCI-H226
[62] = tested on: DMS-114
[63] = tested on: SF-539
[64] = tested on: A549
[65] = tested on: SF-268
[66] = tested on: HL-60
[67] = tested on: UO-31
[68] = tested on: NCI-H23
[69] = tested on: DLD-1

`COc1cc2nncc(SCc3ccc(Cl)c(Cl)c3)c2cc1OC` was tested, and the GI50 [1] was 32.3 µM (inactive), the GI50 [2] was 82.4 µM (inactive) and the GI50 [3] was > 100 µM (inactive). The GI50 [4] was > 100 µM (inactive), the GI50 [5] was > 100 µM (inactive) and the GI50 [6] was > 100 µM (inactive). For the same molecule, the GI50 [7] was > 100 µM (inactive), the GI50 [8] was > 73.8 µM (inactive) and the GI50 [9] was > 100 µM (inactive). For the same molecule, the GI50 [10] was > 100 µM (inactive), the GI50 [11] was 99.3 µM (inactive) and the GI50 [12] was > 94.8 µM (inactive). For the same molecule, the GI50 [13] was 34 µM (inactive), the GI50 [14] was > 100 µM (inactive) and the GI50 [15] was 98.4 µM (inactive). For the same molecule, the GI50 [16] was > 100 µM (inactive), the GI50 [17] was > 100 µM (inactive) and the GI50 [18] was 40.7 µM (inactive). For the same molecule, the GI50 [19] was > 100 µM (inactive), the GI50 [20] was > 62.7 µM (inactive) and the GI50 [21] was > 100 µM (inactive). For the same molecule, the GI50 [22] was 80 µM (inactive), the GI50 [23] was > 100 µM (inactive) and the GI50 [24] was 50.5 µM (inactive). The GI50 [25] was > 100 µM (inactive), the GI50 [26] was > 71.3 µM (inactive) and the GI50 [27] was > 100 µM (inactive). The GI50 [28] was 26.2 µM (inactive), the GI50 [29] was > 100 µM (inactive) and the GI50 [30] was 35.3 µM (inactive). For the same molecule, the GI50 [31] was > 69.3 µM (inactive), the GI50 [32] was > 100 µM (inactive) and the GI50 [33] was over 31.3 µM. The GI50 [34] was > 100 µM (inactive), the GI50 [35] was 72.1 µM (inactive) and the GI50 [36] was > 72.3 µM (inactive). The GI50 [37] was > 48.4 µM (inactive), the GI50 [38] was > 35.6 µM (inactive) and the GI50 [39] was > 100 µM (inactive). For the same molecule, the GI50 [40] was 24.4 µM (inactive), the GI50 [41] was > 100 µM (inactive) and the GI50 [42] was > 56.4 µM (inactive). The GI50 [43] was 45.9 µM (inactive), the GI50 [44] was > 45.8 µM (inactive) and the GI50 [45] was > 100 µM (inactive). The GI50 [46] was 14 µM (inactive), the GI50 [47] was 21.5 µM (inactive) and the GI50 [48] was > 100 µM (inactive). The GI50 [49] was 42.8 µM (inactive), the GI50 [50] was > 100 µM (inactive) and the GI50 [51] was > 100 µM (inactive). For the same molecule, the GI50 [52] was 6.85 µM (inactive), the GI50 [53] was 17.7 µM (inactive) and the GI50 [54] was > 100 µM (inactive). For the same molecule, the GI50 [55] was > 49.9 µM (inactive), the GI50 [56] was > 100 µM (inactive) and the GI50 [57] was 89.5 µM (inactive). The GI50 [58] was > 100 µM (inactive), the GI50 [59] was 23.2 µM (inactive) and the GI50 [60] was > 100 µM (inactive). The GI50 [61] was > 100 µM (inactive), the GI50 [62] was > 100 µM (inactive) and the GI50 [63] was 35.6 µM (inactive). The GI50 [64] was > 82.2 µM (inactive), the GI50 [65] was > 69.5 µM (inactive) and the GI50 [66] was > 50.8 µM (inactive). For the same molecule, the GI50 [67] was > 100 µM (inactive) and the GI50 [68] was > 100 µM (inactive).
In the case of `O=C1CCC(=O)C12CCc1ccccc12`, the GI50 [1] was > 100 µM (inactive), the GI50 [2] was > 100 µM (inactive) and the GI50 [3] was > 100 µM (inactive). The GI50 [4] was > 100 µM (inactive), the GI50 [5] was > 100 µM (inactive) and the GI50 [7] was > 100 µM (inactive). The GI50 [8] was > 100 µM (inactive), the GI50 [11] was > 100 µM (inactive) and the GI50 [12] was > 10 µM (inactive). For the same molecule, the GI50 [14] was > 100 µM (inactive), the GI50 [16] was > 100 µM (inactive) and the GI50 [19] was > 100 µM (inactive). The GI50 [24] was > 100 µM (inactive), the GI50 [25] was > 100 µM (inactive) and the GI50 [26] was > 100 µM (inactive). The GI50 [28] was > 100 µM (inactive), the GI50 [29] was > 100 µM (inactive) and the GI50 [30] was > 100 µM (inactive). For the same molecule, the GI50 [31] was > 100 µM (inactive), the GI50 [33] was over 100 µM and the GI50 [35] was > 100 µM (inactive). The GI50 [36] was > 100 µM (inactive), the GI50 [37] was > 100 µM (inactive) and the GI50 [38] was > 100 µM (inactive). The GI50 [40] was > 100 µM (inactive), the GI50 [44] was > 100 µM (inactive) and the GI50 [45] was > 100 µM (inactive). The GI50 [46] was > 100 µM (inactive), the GI50 [47] was > 100 µM (inactive) and the GI50 [49] was > 100 µM (inactive). The GI50 [50] was > 100 µM (inactive), the GI50 [51] was > 100 µM (inactive) and the GI50 [52] was > 100 µM (inactive). The GI50 [53] was > 100 µM (inactive), the GI50 [69] was > 100 µM (inactive) and the GI50 [55] was > 100 µM (inactive). The GI50 [60] was > 100 µM (inactive), the GI50 [62] was > 100 µM (inactive) and the GI50 [64] was > 100 µM (inactive). For the same molecule, the GI50 [65] was > 100 µM (inactive), the GI50 [66] was > 100 µM (inactive) and the GI50 [67] was > 100 µM (inactive). For the same molecule, the GI50 [68] was > 100 µM (inactive).

From ChEMBL document CHEMBL1201862, “PubChem BioAssay data set” (2004)
